Calls of active or inactive are those of the source.
Experiments:
Large T antigen = Large T antigen (Simian virus 40, UniProt P03070); format: functional, Betapolyomavirus macacae;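 also: Confirmatory-stage PubChem screen for compounds that inhibit SV40 T antigen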
[1] = viability of uninfected HEp-2 cells – cell-based, HTS, cytotoxicity control for RSV inhibitor project, dose response (AID 2410); format: functional; details: human respiratory syncytial virus
Aminopeptidase N = target: T1, Aminopeptidase N (Plasmodium falciparum FcB1/Columbia, UniProt O96935); experiment: malaria alanyl aminopeptidase activity blockers – biochemical, fluorogenic H-Leu-NHMec substrate, 1536-well (AID 1445); design: species or system Plasmodium falciparum 3D7, 3D7
T1 sequence (O96935 whole entry): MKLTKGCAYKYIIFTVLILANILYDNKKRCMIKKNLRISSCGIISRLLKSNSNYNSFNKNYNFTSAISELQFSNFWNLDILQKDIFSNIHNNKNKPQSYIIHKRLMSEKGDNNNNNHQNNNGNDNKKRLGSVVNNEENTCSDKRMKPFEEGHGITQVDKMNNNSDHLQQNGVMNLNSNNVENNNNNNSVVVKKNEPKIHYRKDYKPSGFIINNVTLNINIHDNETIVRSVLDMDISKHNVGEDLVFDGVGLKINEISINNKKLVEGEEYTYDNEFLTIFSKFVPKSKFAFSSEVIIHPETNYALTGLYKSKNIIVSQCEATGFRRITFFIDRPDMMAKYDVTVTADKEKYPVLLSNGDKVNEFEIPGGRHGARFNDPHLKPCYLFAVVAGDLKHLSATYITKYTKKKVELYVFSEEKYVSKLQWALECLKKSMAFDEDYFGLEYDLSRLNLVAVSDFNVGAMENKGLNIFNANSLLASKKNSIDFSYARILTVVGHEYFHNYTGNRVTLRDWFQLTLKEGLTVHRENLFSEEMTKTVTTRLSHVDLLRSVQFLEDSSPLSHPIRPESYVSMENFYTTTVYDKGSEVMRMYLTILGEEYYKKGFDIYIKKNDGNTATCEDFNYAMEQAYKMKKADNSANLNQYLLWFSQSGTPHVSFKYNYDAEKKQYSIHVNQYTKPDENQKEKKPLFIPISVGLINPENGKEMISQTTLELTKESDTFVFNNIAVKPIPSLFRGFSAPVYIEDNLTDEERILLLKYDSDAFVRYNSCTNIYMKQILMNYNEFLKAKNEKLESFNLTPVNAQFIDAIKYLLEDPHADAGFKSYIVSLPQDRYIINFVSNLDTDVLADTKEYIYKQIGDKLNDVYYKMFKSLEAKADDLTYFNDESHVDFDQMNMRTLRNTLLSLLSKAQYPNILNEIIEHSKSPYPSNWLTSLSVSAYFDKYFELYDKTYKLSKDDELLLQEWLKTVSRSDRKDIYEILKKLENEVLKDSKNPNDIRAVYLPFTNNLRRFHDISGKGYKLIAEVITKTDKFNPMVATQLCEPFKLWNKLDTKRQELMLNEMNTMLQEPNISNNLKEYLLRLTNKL

[2] = HEK-293T viability loss after treatment – luminescence, T-cell screen hits, cytotoxicity control for TCR NF-kB inhibitor project, dose response (AID 489026); format: functional, cell-based;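 also: cells exposed to compound about 14 hours before the viability readout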
[3] = target: Eukaryotic translation initiation factor 4E (Mus musculus, UniProt P63073); experiment: blockers of eIF4G binding by eIF4E – biochemical, TR-FRET, dose response (AID 855); format: functional;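 also: potency for disrupting eIF4E binding to eIF4GI seen as loss of FRET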
cells = format: functional
Nonstructural protein 1 = Nonstructural protein 1 (Influenza A virus, UniProt Q194T2); format: functional, Influenza A virus (A/California/07/2009(H1N1))
[4] = HIV-1 AD8 envelope cell-cell fusion blockers – cherry-pick, dose response (AID 652062); format: functional, cell-based;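 also: luciferase signal from cell-cell fusion driven by HIV-1 clade B AD8 Env; potency is for inhibitors of fusion seen as a drop in luminescence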
[5] = blockers of HIV-1 envelope-mediated cell-cell fusion – cherry-pick, dose response (AID 652057); format: functional, cell-based
[6] = target: T2, Carboxy-terminal domain RNA polymerase II polypeptide A small phosphatase 1 (Homo sapiens, UniProt Q9GZU7); experiment: CTDSP1 inhibitors, concentration-response, biochemical, absorbance readout, ultra-high-throughput screen actives (AID 540297); format: functional
T2 sequence (Q9GZU7 whole entry): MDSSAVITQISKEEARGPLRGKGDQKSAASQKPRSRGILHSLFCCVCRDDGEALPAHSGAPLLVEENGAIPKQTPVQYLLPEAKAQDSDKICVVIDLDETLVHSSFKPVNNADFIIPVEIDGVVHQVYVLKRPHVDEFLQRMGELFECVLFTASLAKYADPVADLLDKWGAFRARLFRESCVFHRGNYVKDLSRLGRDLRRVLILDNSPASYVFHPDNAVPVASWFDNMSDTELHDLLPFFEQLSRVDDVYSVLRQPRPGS

[7] = target: DNA dC->dU-editing enzyme APOBEC-3G (Homo sapiens, UniProt Q9HC16); experiment: Dose Response confirmation of small molecule APOBEC3G DNA Deaminase Inhibitors via a fluorescence-based single-stranded DNA deaminase assay. [Related pubchem assays (depositor defined):AID493012, AID493028]; format: functional
[8] = Trypanosoma cruzi growth suppression in host cells – NIH3T3 host cells, beta-gal luminescence, confirmation (AID 2044); format: functional, cell-based;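 also: intracellular parasites grown in NIH/3T3 mouse fibroblasts as host cells; luminescent beta-galactosidase reporter signal from transgenic T. cruzi replicating inside host cells; inhibitors lower the luminescence signal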
[9] = NIH3T3 cell viability loss – ATP luminescence, mouse fibroblasts, counter-screen, dose response (AID 2010); format: functional, cell-based;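 also: cells exposed to compound for about 90 hours before reading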
[10] = target: T3, Microphthalmia-associated transcription factor (Homo sapiens, UniProt O75030); experiment: reducers of TRPM1 reporter luminescence, concentration series – cell-based, SK-MEL-5, cherry-picked, set 3, MITF inhibitor project, dose response (AID 493073); format: functional;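 also: SK-MEL-5 melanoma cells with luciferase driven by the MITF target TRPM1 promoter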
T3 sequence (O75030 whole entry): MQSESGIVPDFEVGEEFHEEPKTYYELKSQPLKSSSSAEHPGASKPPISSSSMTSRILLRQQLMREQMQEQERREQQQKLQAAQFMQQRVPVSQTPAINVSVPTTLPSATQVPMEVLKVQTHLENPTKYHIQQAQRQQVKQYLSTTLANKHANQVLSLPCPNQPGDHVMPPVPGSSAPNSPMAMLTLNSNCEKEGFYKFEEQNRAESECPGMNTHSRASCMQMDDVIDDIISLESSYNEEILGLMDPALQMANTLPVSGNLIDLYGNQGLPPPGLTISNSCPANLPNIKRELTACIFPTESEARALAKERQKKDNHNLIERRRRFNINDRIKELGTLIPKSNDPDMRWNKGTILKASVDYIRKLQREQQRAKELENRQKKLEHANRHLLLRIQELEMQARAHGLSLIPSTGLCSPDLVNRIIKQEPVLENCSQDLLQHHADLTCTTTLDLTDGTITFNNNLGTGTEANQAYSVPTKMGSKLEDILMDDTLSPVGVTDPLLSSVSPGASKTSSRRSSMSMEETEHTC

[11] = A Cell Based Secondary Assay To Explore Cytotoxicity of Compounds that Sensitize Mycobacterium Tuberculosis to Beta-Lactam Antibiotics.; format: functional

Sequence of Nonstructural protein 1 (Q194T2 whole entry, the tested form may be a part): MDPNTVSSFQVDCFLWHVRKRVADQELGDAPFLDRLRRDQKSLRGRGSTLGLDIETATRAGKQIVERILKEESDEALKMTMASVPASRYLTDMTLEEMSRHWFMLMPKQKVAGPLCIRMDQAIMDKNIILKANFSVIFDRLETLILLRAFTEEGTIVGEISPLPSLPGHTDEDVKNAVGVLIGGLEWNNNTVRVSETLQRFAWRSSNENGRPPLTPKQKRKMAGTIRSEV
Sequence of Eukaryotic translation initiation factor 4E (P63073 whole entry): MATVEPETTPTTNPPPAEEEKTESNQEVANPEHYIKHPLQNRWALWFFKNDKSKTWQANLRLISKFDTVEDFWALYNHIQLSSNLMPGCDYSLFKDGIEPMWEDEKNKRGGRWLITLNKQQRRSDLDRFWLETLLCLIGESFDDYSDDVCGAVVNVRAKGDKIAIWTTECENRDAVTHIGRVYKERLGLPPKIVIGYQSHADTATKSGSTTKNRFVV
Sequence of Large T antigen (P03070 whole entry): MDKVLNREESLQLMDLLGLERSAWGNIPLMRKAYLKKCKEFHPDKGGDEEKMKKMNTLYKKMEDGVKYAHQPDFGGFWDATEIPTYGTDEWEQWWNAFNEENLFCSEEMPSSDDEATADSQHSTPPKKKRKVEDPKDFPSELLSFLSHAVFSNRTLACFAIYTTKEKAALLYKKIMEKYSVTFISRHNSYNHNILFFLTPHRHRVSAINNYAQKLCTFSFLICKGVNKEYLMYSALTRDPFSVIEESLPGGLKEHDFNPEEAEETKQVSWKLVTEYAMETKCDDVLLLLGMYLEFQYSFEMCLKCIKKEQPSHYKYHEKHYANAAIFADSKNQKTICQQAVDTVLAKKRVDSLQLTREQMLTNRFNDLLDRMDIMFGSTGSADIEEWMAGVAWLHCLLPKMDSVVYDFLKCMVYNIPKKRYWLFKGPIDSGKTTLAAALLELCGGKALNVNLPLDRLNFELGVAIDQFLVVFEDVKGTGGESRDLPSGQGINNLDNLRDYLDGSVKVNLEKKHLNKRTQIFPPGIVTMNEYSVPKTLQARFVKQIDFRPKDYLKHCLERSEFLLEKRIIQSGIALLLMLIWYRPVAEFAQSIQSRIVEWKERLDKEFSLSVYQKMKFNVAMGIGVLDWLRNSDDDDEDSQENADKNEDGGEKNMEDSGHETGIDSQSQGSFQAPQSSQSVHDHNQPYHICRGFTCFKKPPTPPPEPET
Sequence of DNA dC->dU-editing enzyme APOBEC-3G (Q9HC16 whole entry): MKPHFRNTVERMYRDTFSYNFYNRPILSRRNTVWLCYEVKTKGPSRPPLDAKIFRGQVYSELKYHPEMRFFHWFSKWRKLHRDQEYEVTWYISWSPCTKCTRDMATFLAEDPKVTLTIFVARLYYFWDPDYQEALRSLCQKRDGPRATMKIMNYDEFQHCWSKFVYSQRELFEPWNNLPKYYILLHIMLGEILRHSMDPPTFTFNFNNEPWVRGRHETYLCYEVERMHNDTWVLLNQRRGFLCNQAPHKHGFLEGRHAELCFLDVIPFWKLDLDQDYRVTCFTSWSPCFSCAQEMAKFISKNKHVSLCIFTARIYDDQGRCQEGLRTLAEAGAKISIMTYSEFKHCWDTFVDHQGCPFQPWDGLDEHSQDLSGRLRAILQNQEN

SMILES: CCOc1cc(NS(=O)(=O)c2ccc(NC(C)=O)cc2)c(OCC)cc1NC(=O)c1cccs1
- IC50 (Large T antigen): 24 µM (active)

SMILES: O=c1cc(CN2CCN(c3ccc(O)cc3)CC2)nc2scc(-c3ccccc3)n12
- IC50 (Large T antigen): 10.5 µM (active)

SMILES: Cc1ccc2nc(NS(C)(=O)=O)sc2c1
- CC50 [1]: 23 µM (active)

SMILES: CN(C(=O)c1ccccc1OCc1ccc(Cl)cc1)c1ccccc1
- CC50 [1]: 25.7 µM (active)

SMILES: COc1cc(NS(=O)(=O)c2ccc(NC(=S)NC(=O)c3cccs3)cc2)nc(OC)n1
- IC50 (Aminopeptidase N): 38.9 µM (active)

SMILES: CN1/C(=C\C(=O)c2cccnc2)Sc2ccccc21
- CC50 [1]: 26.5 µM (active)

SMILES: O=[N+]([O-])c1ccc(Sc2ccc(Cl)c(Cl)c2)nc1
- IC50 [2]: > 80 µM (inactive)

SMILES: CCn1c(CNC(=O)c2cccs2)nnc1SCC(=O)NCCc1ccccc1
- IC50 (Aminopeptidase N): 90 µM (active)

SMILES: COc1ccc(C(=O)CN2C(=O)NC(C)(c3ccc(C)cc3)C2=O)cc1OC (stereo not given)
- IC50 [3]: > 64 µM (inactive)

SMILES: Cc1cccc(NC(=O)c2ccc(OC3CSC3)cc2)c1
- IC50 (cells): 44 µM (active)

SMILES: Cc1ccc2cc(CCNS(=O)(=O)c3ccc(Br)cc3)c(O)nc2c1C
- CC50 [1]: 22.1 µM (active)

SMILES: CN1CCN(C(=S)SCC(=O)Nc2ccc(Cl)cc2C(=O)c2ccccc2)CC1
- IC50 (Nonstructural protein 1): > 100 µM (active)

SMILES: Cc1ccc(S(=O)(=O)NNC2=NS(=O)(=O)c3ccccc32)c(C)c1
- IC50 (Aminopeptidase N): 9.97 µM (active)

SMILES: CCCCc1nc(NCCNC(=O)c2ccco2)c(C#N)c2c1CSC(C)(C)C2
- IC50 (Aminopeptidase N): 85.3 µM (active)

SMILES: COc1ccc(OC2C(=O)N(Cc3ccc4c(c3)OCO4)C2c2cccs2)cc1 (stereo not given)
- AC50 [4]: 1.71 µM (active)
- AC50 [5]: 53.1 µM (active)

SMILES: CCN(CC)c1ccc(S(=O)(=O)N(CC)CC)cc1NC(=O)c1cccnc1
- IC50 (Aminopeptidase N): 28.5 µM (active)

SMILES: CCN(CC)S(=O)(=O)c1ccc(OC)c(NC(=O)Cc2cccs2)c1
- IC50 [6]: 4.5 µM (active)
- IC50 [3]: 50 µM (inactive)

SMILES: N#C/C(=C\c1ccc(OC(=O)c2ccc(Br)s2)cc1)c1nc2ccccc2[nH]1
- IC50 [6]: 1.78 µM (active)
- IC50 [3]: > 64 µM (inactive)

SMILES: CC1CCN(c2c(NCC3CCC(C(=O)NCCc4ccc(Cl)cc4)CC3)c(=O)c2=O)CC1 (stereo not given)
- CC50 [1]: > 50 µM (active)

SMILES: O=C1CCC(C(=O)Nc2cccc(S(=O)(=O)Nc3ccccc3F)c2)=NN1
- IC50 [7]: 24.6 µM (active)

SMILES: C[C@H](NC(=O)c1ccccc1)C(=O)Nc1nc(-c2ccccn2)cs1
- IC50 (Nonstructural protein 1): 16.3 µM (active)

SMILES: Cc1ccc(S(=O)(=O)N(C)C[C@@H]2Oc3ccc(NC(=O)Cn4cnnn4)cc3CC(=O)N([C@H](C)CO)C[C@@H]2C)cc1
- AC50 [4]: 7.7 µM (active)
- AC50 [5]: 2.96 µM (active)

SMILES: C[C@H]1CN([C@@H](C)CO)C(=O)c2ccccc2-c2ccccc2CO[C@H]1CN(C)S(=O)(=O)c1cccc(C#N)c1
- AC50 [4]: 0.743 µM (active)
- AC50 [5]: < 0.26 µM (active)

SMILES: CCOC(=O)C(C)Oc1cccc2c(=O)n(CC(=O)NCc3ccco3)ccc12 (stereo not given)
- IC50 [2]: > 80 µM (inactive)

SMILES: O=C(N/N=C/c1ccc([N+](=O)[O-])o1)c1ccccc1-n1cccc1
- EC50 [8]: 0.137 µM (active)
- EC50 [9]: > 60 µM (not active)
- AC50 [10]: 17.1 µM (active)
- CC50 [11]: 32.1 µM (active)

SMILES: O=[N+]([O-])c1cc(/C=N/N=C(/Nc2ccccn2)c2ccccn2)ccc1O
- IC50 (Nonstructural protein 1): 2.46 µM (active)

SMILES: COc1ccccc1-c1noc(-c2ccccc2)n1
- IC50 [3]: > 64 µM (inactive)
